In paper PMC5011342, “A high throughput drug screening assay to identify compounds that promote oligodendrocyte differentiation using acutely dissociated and purified oligodendrocyte precursor cells” (BMC Research Notes, 2016):
Read-outs that look alike come from different tables or passages of the source.

Tests used:
expanded OPCs = assay: cells; details: for viability at 0.1 µM / viability at 1 µM / viability at 10 µM: Rattus norvegicus, 72 h; for 0.1 µM (% DMSO) / 1 µM (% DMSO) / 10 µM (% DMSO): alamarBlue viability of expanded OPCs; for 0.1 µM (% DMSO): compound at 0.1 µM; for 1 µM (% DMSO): compound at 1 µM; for 10 µM (% DMSO): compound at 10 µM
Outline: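 Expanded OPCs seeded at 10,000 cells/well in differentiation media, then exposed to NCC library compounds at 10, 1 and 0.1 µM (quadruplicate, 0.1% DMSO) for three days. Viability read as alamarBlue fluorescence (560/590 nm) after 4 h at 37 °C; tunicamycin 5 ng/ml served as toxicity control.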

[1] = test system: acutely dissociated and purified rat OPCs; assay: Acute OL differentiation assay (MBP expression/cell, immunofluorescent image quantification); format: cell-based; details: for activation at 2 µM / activation at 10 µM / activation at 0.4 µM: Rattus norvegicus
Outline: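 Oligodendrocyte precursor cells were enriched from P6-P7 Sprague–Dawley rat brains by immunopanning (RAN-2 and GalC depletion, O4 selection), plated at 5000 cells/well in serum-free, mitogen-free differentiation media on PDL/laminin 96-well view plates, centrifuged at 200×g, and pre-incubated 1–2 h before test compounds were added in quadruplicate. On DIV4, cells were fixed, stained for MBP and DAPI, imaged automatically, and MBP expression per cell was quantified.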

[2] = read-out: 0.1 µM (% DMSO), alamarBlue viability of expanded OPCs, compound at 0.1 µM, sheet All Tox data
[3] = read-out: 1 µM (% DMSO), alamarBlue viability of expanded OPCs, compound at 1 µM, sheet All Tox data
[4] = read-out: 10 µM (% DMSO), alamarBlue viability of expanded OPCs, compound at 10 µM, sheet All Tox data
[5] = 2 uM test compound, relative to quetiapine, sheet "All OLga data", read-out: OL differentiation, 2 uM (% Quet)
[6] = 10 uM test compound, relative to quetiapine, sheet "All OLga data", read-out: OL differentiation, 10 uM (% Quet)
[7] = test compound at 2 uM, MBP expression relative to quetiapine, NCC library screen, sheet "All OLga data", read-out: 2 uM (% Quet)
[8] = test compound at 10 uM, MBP expression relative to quetiapine, NCC library screen, sheet "All OLga data", read-out: 10 uM (% Quet)
[9] = read-out: 0.1 µM (% DMSO), alamarBlue viability, NCC library compound at 0.1 µM, sheet "All Tox data"
[10] = read-out: 1 µM (% DMSO), alamarBlue viability, NCC library compound at 1 µM, sheet "All Tox data"
[11] = read-out: 10 µM (% DMSO), alamarBlue viability, NCC library compound at 10 µM, sheet "All Tox data"
[12] = test compound at 2 uM, NCC library screen, sheet "All OLga data", relative to quetiapine, read-out: 2 uM (% Quet)
[13] = test compound at 10 uM, NCC library screen, sheet "All OLga data", relative to quetiapine, read-out: 10 uM (% Quet)
[14] = 0.4 uM test compound, relative to quetiapine, sheet "All OLga data", read-out: OL differentiation, 0.4 uM (% Quet)

SMILES: COc1nc(C)nc(Cl)c1N=C1NCCN1 [Moxonidine]
- viability at 0.1 µM (expanded OPCs; [2]): 85.4%
- viability at 1 µM (expanded OPCs; [3]): 88.5%
- viability at 10 µM (expanded OPCs; [4]): 98.4%
- activation at 2 µM [1, 5]: -1.2%
- activation at 10 µM [1, 6]: -26.2%

SMILES: C/C(=C\C(=O)OCCCCCCCCC(=O)O)C[C@@H]1OC[C@H](C[C@@H]2O[C@H]2[C@@H](C)[C@H](C)O)[C@@H](O)[C@H]1O [Mupirocin]
- 0.1 µM (% DMSO) (expanded OPCs; relative to DMSO control): 103.2 % DMSO
- 1 µM (% DMSO) (expanded OPCs; relative to DMSO control): 108.1 % DMSO
- 10 µM (% DMSO) (expanded OPCs; relative to DMSO control): 104.3 % DMSO
- activation at 2 µM [1, 7]: -2.9%
- activation at 10 µM [1, 8]: 0.04%

SMILES: CN1CC[C@@H](c2ccc(F)cc2)[C@H](COc2ccc3c(c2)OCO3)C1 [N-Methylparoxetine]
- 0.1 µM (% DMSO) (expanded OPCs; sheet All Tox data): 86.7 % DMSO
- 1 µM (% DMSO) (expanded OPCs; sheet All Tox data): 60.7 % DMSO
- 10 µM (% DMSO) (expanded OPCs; sheet All Tox data): 18.7 % DMSO
- OL differentiation, 0.4 uM (% Quet) ([1]; 0.4 uM test compound, relative to quetiapine, sheet "All OLga data"): -15.7 % Quet
- OL differentiation, 2 uM (% Quet) ([1]; 2 uM test compound, relative to quetiapine, sheet "All OLga data"): -45.1 % Quet

SMILES: COc1ccc2cc(CCC(C)=O)ccc2c1 [Nabumetone]
- viability at 0.1 µM (expanded OPCs; [9]): 92%
- viability at 1 µM (expanded OPCs; [10]): 90.9%
- viability at 10 µM (expanded OPCs; [11]): 94.8%
- activation at 2 µM [1, 12]: 5.8%
- activation at 10 µM [1, 13]: 14.1%

SMILES: CC(C)(C)NCC(O)COc1cccc2c1CC(O)C(O)C2 (stereo not shown) [Nadolol]
- 0.1 µM (% DMSO) (expanded OPCs; relative to DMSO control): 102.3 % DMSO
- 1 µM (% DMSO) (expanded OPCs; relative to DMSO control): 95.3 % DMSO
- 10 µM (% DMSO) (expanded OPCs; relative to DMSO control): 94.0 % DMSO
- activation at 2 µM [1, 12]: -14.4%
- activation at 10 µM [1, 13]: -35%

SMILES: CCCCN1CCCC1CNC(=O)c1cc(C#N)c2ccccc2c1OC (stereo not shown) [Nafadotride]
- viability at 0.1 µM (expanded OPCs; [9]): 118%
- viability at 1 µM (expanded OPCs; [10]): 131%
- viability at 10 µM (expanded OPCs; [11]): 49.6%
- activation at 0.4 µM ([1]; test compound at 0.4 uM, NCC library screen, sheet "All OLga data", relative to quetiapine, read-out: 0.4 uM (% Quet)): 7.6%
- activation at 2 µM [1, 12]: 26.6%

SMILES: CCOc1ccc2ccccc2c1C(=O)N[C@@H]1C(=O)N2[C@@H]1SC(C)(C)[C@@H]2C(=O)O [Nafcillin]
- 0.1 µM (% DMSO) (expanded OPCs; relative to DMSO control): 104.4 % DMSO
- 1 µM (% DMSO) (expanded OPCs; relative to DMSO control): 94.8 % DMSO
- 10 µM (% DMSO) (expanded OPCs; relative to DMSO control): 90.0 % DMSO
- activation at 2 µM [1, 12]: -20.5%
- activation at 10 µM [1, 13]: 0.11%

SMILES: COc1ccccc1N1CCN(CC(O)COc2cccc3ccccc23)CC1 (stereo not shown) [Naftopidil]
- viability at 0.1 µM (expanded OPCs; [2]): 96.2%
- viability at 1 µM (expanded OPCs; [3]): 87.5%
- viability at 10 µM (expanded OPCs; [4]): 26.4%
- activation at 0.4 µM [1, 14]: -7.9%
- activation at 2 µM [1, 5]: -49.3%

SMILES: Oc1ccc2c3c1O[C@H]1[C@@H](O)CC[C@@]4(O)[C@@H](C2)N(CC2CCC2)CC[C@]314 [Nalbufina]
- viability at 0.1 µM (expanded OPCs; read-out: 0.1 µM (% DMSO)): 99%
- viability at 1 µM (expanded OPCs; read-out: 1 µM (% DMSO)): 98.8%
- viability at 10 µM (expanded OPCs; read-out: 10 µM (% DMSO)): 99.1%
- activation at 2 µM ([1]; read-out: OL differentiation, 2 uM (% Quet)): -0.9%
- activation at 10 µM ([1]; read-out: OL differentiation, 10 uM (% Quet)): 19.7%

SMILES: CCn1cc(C(=O)O)c(=O)c2ccc(C)nc21 [Nalidixic Acid]
- 0.1 µM (% DMSO) (expanded OPCs; relative to DMSO control): 93.0 % DMSO
- 1 µM (% DMSO) (expanded OPCs; relative to DMSO control): 93.1 % DMSO
- 10 µM (% DMSO) (expanded OPCs; relative to DMSO control): 92.5 % DMSO
- activation at 2 µM [1, 7]: -14.9%
- activation at 10 µM [1, 8]: -17.1%

SMILES: C=CCN1CC[C@]23c4c5ccc(O)c4O[C@H]2C(=O)CC[C@@]3(O)[C@H]1C5 [Naloxone]
- viability at 0.1 µM (expanded OPCs; [9]): 94.2%
- viability at 1 µM (expanded OPCs; [10]): 90.1%
- viability at 10 µM (expanded OPCs; [11]): 85.6%
- activation at 2 µM [1, 12]: -2.8%
- activation at 10 µM [1, 13]: -10.8%

SMILES: O=C1CC[C@@]2(O)[C@H]3Cc4ccc(O)c5c4[C@@]2(CCN3CC2CC2)[C@H]1O5 [Naltrexone]
- 0.1 µM (% DMSO) (expanded OPCs; relative to DMSO control): 99.5 % DMSO
- 1 µM (% DMSO) (expanded OPCs; relative to DMSO control): 101.6 % DMSO
- 10 µM (% DMSO) (expanded OPCs; relative to DMSO control): 97.3 % DMSO
- activation at 2 µM [1, 7]: 12.8%
- activation at 10 µM [1, 8]: -5.6%

SMILES: Oc1ccc2c3c1O[C@H]1c4[nH]c5ccccc5c4C[C@@]4(O)[C@@H](C2)N(CC2CC2)CC[C@]314 [Naltrindole]
- viability at 0.1 µM (expanded OPCs; [2]): 80.6%
- viability at 1 µM (expanded OPCs; [3]): 66.7%
- viability at 10 µM (expanded OPCs; [4]): 17.9%
- activation at 0.4 µM [1, 14]: -9.9%
- activation at 2 µM [1, 5]: -35.8%

SMILES: C[C@]12CC[C@H]3[C@@H](CCC4=CC(=O)CC[C@@H]43)[C@@H]1CC[C@@H]2O [Nandrolone]
- viability at 0.1 µM (expanded OPCs; [2]): 94.4%
- viability at 1 µM (expanded OPCs; [3]): 98.5%
- viability at 10 µM (expanded OPCs; [4]): 96.2%
- activation at 2 µM [1, 5]: -5.9%
- activation at 10 µM [1, 6]: -26.5%
